Structures are written as SMILES.

The target in this test is Queuine tRNA-ribosyltransferase (Zymomonas mobilis (strain ATCC 31821 / ZM4 / CP4), UniProt P28720). Briefly: Inhibitory activity against eubacterial tRNA guanine transglycosylase (TGT) from Zymomonas mobilis.
Chain of Queuine tRNA-ribosyltransferase (P28720 whole entry): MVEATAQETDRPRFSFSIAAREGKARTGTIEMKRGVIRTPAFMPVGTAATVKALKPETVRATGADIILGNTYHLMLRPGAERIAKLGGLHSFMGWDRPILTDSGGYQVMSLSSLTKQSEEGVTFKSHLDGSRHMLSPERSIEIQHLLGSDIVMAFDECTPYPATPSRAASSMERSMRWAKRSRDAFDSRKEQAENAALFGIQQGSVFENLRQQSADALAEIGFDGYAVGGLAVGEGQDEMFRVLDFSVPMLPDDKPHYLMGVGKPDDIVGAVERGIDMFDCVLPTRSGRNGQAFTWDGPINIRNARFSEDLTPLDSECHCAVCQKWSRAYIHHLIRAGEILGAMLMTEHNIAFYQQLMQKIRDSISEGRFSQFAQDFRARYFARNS
The term Ki denotes the equilibrium dissociation constant of an inhibitor or competing ligand from its target. A higher Ki goes with lower affinity. `Nc1nc2nccnc2c(=O)[nH]1` [PTERINE]: the Ki worked out at 0.6 µM.
To `Nc1nc2nc(-c3ccccc3)cnc2c(=O)[nH]1` belongs 3.8 µM.
The figure for `O=c1[nH][nH]c(=O)c2c(O)c3sccc3nc12` is 5 µM; for `NNC(=O)c1cc2cc(F)ccc2[nH]1` it is 72 µM; for `Nc1[nH]nc2nc(-c3ccccc3)[nH]c(=O)c12` it is 249 µM.
Turning to `O=c1[nH][nH]c(=O)c2[nH]cnc12`, the affinity, expressed as Ki, was 200 µM.
To `Cc1csc2c(O)c3c(=O)[nH][nH]c(=O)c3nc12` belongs 4.7 µM; to `Nc1nc(O)c2[nH]c(N3CCCCC3)nc2n1`, 37 µM; to `Cc1ccc2[nH]c3nnc(N)c-3cc2c1`, 156 µM.
To `Cc1cnc2nc(N)nc(O)c2n1` belongs 0.25 µM.
The figure for `Nc1nc(O)c2[nH]c(SCc3ccc(Cl)cc3)nc2n1` is 2.7 µM; for `Nc1cccc2c(=O)[nH][nH]c(=O)c12` it is 36 µM.
As for `Nc1c2c(O)nc(O)cc2nn1CCO`, the Ki amounted to 8.1 µM.

(Values after ChEMBL document CHEMBL1136737, “Virtual screening for submicromolar leads of tRNA-guanine transglycosylase based on a new unexpected binding mode detected by crystal structure analysis” (J Med Chem, 2003).)
